Measured values: ChEMBL document CHEMBL2150859, “Design, synthesis, and evaluation of 3,5-disubstituted 7-azaindoles as Trk inhibitors with anticancer and antiangiogenic activities” (J Med Chem, 2012)

Tested on: not listed separately
Assay: Selectivity ratio of Kd for PI3Kalpha to Kd for TRKA
Conditions: not given

| SMILES | Selectivity ratio |
| --- | --- |
| COc1ccc(-c2c[nH]c3ncc(-c4cncc(N)c4)cc23)cc1OC | 17 |
| Nc1cccc(-c2cnc3[nH]cc(-c4cccnc4)c3c2)c1 | 60 |
| COc1ccc(-c2c[nH]c3ncc(-c4cccc(NS(=O)(=O)c5ccccc5)c4)cc23)cc1OC | 25 |
| COc1ccc(-c2c[nH]c3ncc(-c4cncc(NS(=O)(=O)c5ccccc5)c4)cc23)cc1OC | 0.33 |
| N#Cc1cccc(-c2cnc3[nH]cc(-c4cccc(N)c4)c3c2)c1 | 109 |

Tested on: MCF7
Assay: cells
Conditions: Homo sapiens, MCF7, 48 h
Description: Cytotoxicity against human MCF7 cells after 48 hrs by MTT assay

| SMILES | IC50 |
| --- | --- |
| COc1cccc(-c2cnc3[nH]cc(-c4ccncc4)c3c2)c1 | 11700 nM |
| CN(C)c1cccc(-c2cnc3[nH]cc(-c4ccncc4)c3c2)c1 | 12100 nM |
| Nc1cc(-c2cnc3[nH]cc(-c4ccncc4)c3c2)ccc1Cl | 12000 nM |
| Nc1cccc(-c2cnc3[nH]cc(-c4ccncc4)c3c2)c1 | 2300 nM |
| CNc1cccc(-c2cnc3[nH]cc(-c4ccncc4)c3c2)c1 | 4500 nM |
| Nc1cc(NS(=O)(=O)c2ccccc2)cc(-c2cnc3[nH]cc(-c4ccncc4)c3c2)c1 | 8800 nM |
| CN(C)CCOc1cc(N)cc(-c2cnc3[nH]cc(-c4ccncc4)c3c2)c1 | 11200 nM |
| Cc1ccc(-c2cnc3[nH]cc(-c4ccncc4)c3c2)cc1N | 2800 nM |
| Nc1cc(NS(=O)(=O)c2ccc(F)cc2F)cc(-c2cnc3[nH]cc(-c4ccncc4)c3c2)c1 | 6600 nM |
| CN(C)CCOc1ccc(-c2cnc3[nH]cc(-c4ccncc4)c3c2)cc1N | 3100 nM |
| Nc1cc(OCCN2CCOCC2)cc(-c2cnc3[nH]cc(-c4ccncc4)c3c2)c1 | 11200 nM |
| CC(=O)Nc1cc(N)cc(-c2cnc3[nH]cc(-c4ccncc4)c3c2)c1 | > 30000 nM |
| Nc1cncc(-c2cnc3[nH]cc(-c4ccncc4)c3c2)c1 | 5100 nM |
| Cc1ccc(S(=O)(=O)Nc2cc(N)cc(-c3cnc4[nH]cc(-c5ccncc5)c4c3)c2)cc1 | 10400 nM |
| Nc1cc(C(=O)N2CCOCC2)cc(-c2cnc3[nH]cc(-c4ccncc4)c3c2)c1 | > 30000 nM |
| COc1cc(N)cc(-c2cnc3[nH]cc(-c4ccncc4)c3c2)c1 | 8500 nM |
| COc1ccc(N)cc1-c1cnc2[nH]cc(-c3ccncc3)c2c1 | 5400 nM |
| Nc1cc(-c2cnc3[nH]cc(-c4ccncc4)c3c2)ccc1C(=O)N1CCOCC1 | 8500 nM |
| CC(=O)Nc1cccc(-c2cnc3[nH]cc(-c4ccncc4)c3c2)c1 | 9100 nM |
| CS(=O)(=O)Nc1cc(N)cc(-c2cnc3[nH]cc(-c4ccncc4)c3c2)c1 | > 30000 nM |
| Nc1ccc(-c2cnc3[nH]cc(-c4ccncc4)c3c2)cc1 | 7700 nM |
| COc1ccc(-c2cnc3[nH]cc(-c4ccncc4)c3c2)cc1N | 8700 nM |

Molecular target: T1, Phosphatidylinositol 4,5-bisphosphate 3-kinase catalytic subunit alpha isoform (Homo sapiens, UniProt P42336)
T1 sequence (P42336 whole entry, canonical isoform): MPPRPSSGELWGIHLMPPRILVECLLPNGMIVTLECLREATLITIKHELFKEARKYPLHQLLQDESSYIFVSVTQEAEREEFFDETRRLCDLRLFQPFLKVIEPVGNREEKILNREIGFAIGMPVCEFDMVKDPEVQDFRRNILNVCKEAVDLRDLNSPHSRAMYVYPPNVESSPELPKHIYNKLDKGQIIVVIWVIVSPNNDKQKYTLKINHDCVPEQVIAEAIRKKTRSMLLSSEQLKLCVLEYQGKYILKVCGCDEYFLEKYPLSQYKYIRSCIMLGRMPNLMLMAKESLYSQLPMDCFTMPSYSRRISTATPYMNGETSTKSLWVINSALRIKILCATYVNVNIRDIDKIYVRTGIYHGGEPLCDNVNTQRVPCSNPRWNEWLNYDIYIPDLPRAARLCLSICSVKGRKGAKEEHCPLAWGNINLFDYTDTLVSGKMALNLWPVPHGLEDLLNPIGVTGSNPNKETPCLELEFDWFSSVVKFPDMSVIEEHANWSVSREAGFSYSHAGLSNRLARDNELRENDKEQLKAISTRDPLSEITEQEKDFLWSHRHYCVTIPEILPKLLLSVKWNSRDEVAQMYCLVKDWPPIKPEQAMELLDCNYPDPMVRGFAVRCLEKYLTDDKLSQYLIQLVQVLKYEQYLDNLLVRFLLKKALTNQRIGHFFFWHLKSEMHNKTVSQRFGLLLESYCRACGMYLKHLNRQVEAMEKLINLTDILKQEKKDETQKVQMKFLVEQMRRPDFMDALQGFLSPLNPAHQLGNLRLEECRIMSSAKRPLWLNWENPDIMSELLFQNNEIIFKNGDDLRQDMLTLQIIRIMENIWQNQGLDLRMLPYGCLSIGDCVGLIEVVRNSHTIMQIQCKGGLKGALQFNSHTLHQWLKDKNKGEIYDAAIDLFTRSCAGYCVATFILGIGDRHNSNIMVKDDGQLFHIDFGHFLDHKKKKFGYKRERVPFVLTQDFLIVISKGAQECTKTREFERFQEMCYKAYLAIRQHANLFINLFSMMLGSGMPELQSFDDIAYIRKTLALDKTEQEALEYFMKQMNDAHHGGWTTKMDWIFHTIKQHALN
Assay: Binding affinity to PI3Kalpha by high throughput assay
Conditions: not given

| SMILES | Kd |
| --- | --- |
| Nc1cccc(-c2cnc3[nH]cc(-c4ccncc4)c3c2)c1 | 2900 nM |
| COc1ccc(-c2c[nH]c3ncc(-c4cncc(N)c4)cc23)cc1OC | 960 nM |
| Nc1cccc(-c2cnc3[nH]cc(-c4cccnc4)c3c2)c1 | 4500 nM |
| COc1ccc(-c2c[nH]c3ncc(-c4cccc(NS(=O)(=O)c5ccccc5)c4)cc23)cc1OC | 2300 nM |
| COc1ccc(-c2c[nH]c3ncc(-c4cncc(NS(=O)(=O)c5ccccc5)c4)cc23)cc1OC | 48 nM |
| N#Cc1cccc(-c2cnc3[nH]cc(-c4cccc(N)c4)c3c2)c1 | 12000 nM |

Molecular target: T2, High affinity nerve growth factor receptor (Homo sapiens, UniProt P04629)
Assay: Binding affinity to TRKA by high throughput assay
Conditions: not given
Target sequence in this assay (P04629 whole entry): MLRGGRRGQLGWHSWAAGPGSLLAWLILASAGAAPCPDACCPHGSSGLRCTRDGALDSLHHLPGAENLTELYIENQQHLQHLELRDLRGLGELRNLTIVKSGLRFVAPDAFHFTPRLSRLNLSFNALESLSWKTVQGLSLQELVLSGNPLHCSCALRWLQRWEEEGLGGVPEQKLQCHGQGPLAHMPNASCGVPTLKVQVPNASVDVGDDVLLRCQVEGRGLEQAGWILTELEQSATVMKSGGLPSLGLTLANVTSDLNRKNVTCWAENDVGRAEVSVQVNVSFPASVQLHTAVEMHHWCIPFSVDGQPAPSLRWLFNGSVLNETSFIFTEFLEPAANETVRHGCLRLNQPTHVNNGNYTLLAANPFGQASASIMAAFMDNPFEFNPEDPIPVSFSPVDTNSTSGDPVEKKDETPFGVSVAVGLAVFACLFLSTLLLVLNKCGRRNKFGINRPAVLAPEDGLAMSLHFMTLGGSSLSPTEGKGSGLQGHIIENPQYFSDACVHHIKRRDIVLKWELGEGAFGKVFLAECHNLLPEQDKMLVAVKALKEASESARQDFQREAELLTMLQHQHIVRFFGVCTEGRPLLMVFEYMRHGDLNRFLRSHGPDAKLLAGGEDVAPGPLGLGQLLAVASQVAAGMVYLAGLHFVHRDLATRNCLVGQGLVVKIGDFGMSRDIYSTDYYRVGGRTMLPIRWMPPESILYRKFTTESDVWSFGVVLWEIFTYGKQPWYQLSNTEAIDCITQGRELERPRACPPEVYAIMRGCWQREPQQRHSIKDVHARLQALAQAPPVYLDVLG

| SMILES | Kd |
| --- | --- |
| Nc1cccc(-c2cnc3[nH]cc(-c4ccncc4)c3c2)c1 | 64 nM |
| COc1ccc(-c2c[nH]c3ncc(-c4cncc(N)c4)cc23)cc1OC | 58 nM |
| COc1ccc(-c2c[nH]c3ncc(-c4cccc(N)c4)cc23)cc1OC | 125 nM |
| Nc1cccc(-c2cnc3[nH]cc(-c4cccnc4)c3c2)c1 | 75 nM |
| Nc1cccc(-c2cnc3[nH]cc(-c4ccccc4)c3c2)c1 | 88 nM |
| N#Cc1cccc(-c2c[nH]c3ncc(-c4cccc(N)c4)cc23)c1 | 270 nM |
| COc1ccc(-c2c[nH]c3ncc(-c4cccc(NS(=O)(=O)c5ccccc5)c4)cc23)cc1OC | 91 nM |
| COc1ccc(-c2c[nH]c3ncc(-c4cncc(NS(=O)(=O)c5ccccc5)c4)cc23)cc1OC | 145 nM |
| N#Cc1cccc(-c2cnc3[nH]cc(-c4cccc(N)c4)c3c2)c1 | 110 nM |

Molecular target: T2, High affinity nerve growth factor receptor
Assay: Binding affinity to TRKA at 10 uM by high throughput binding assay relative to control
Conditions: not given
Target sequence in this assay (P04629 33-796 limits assumed): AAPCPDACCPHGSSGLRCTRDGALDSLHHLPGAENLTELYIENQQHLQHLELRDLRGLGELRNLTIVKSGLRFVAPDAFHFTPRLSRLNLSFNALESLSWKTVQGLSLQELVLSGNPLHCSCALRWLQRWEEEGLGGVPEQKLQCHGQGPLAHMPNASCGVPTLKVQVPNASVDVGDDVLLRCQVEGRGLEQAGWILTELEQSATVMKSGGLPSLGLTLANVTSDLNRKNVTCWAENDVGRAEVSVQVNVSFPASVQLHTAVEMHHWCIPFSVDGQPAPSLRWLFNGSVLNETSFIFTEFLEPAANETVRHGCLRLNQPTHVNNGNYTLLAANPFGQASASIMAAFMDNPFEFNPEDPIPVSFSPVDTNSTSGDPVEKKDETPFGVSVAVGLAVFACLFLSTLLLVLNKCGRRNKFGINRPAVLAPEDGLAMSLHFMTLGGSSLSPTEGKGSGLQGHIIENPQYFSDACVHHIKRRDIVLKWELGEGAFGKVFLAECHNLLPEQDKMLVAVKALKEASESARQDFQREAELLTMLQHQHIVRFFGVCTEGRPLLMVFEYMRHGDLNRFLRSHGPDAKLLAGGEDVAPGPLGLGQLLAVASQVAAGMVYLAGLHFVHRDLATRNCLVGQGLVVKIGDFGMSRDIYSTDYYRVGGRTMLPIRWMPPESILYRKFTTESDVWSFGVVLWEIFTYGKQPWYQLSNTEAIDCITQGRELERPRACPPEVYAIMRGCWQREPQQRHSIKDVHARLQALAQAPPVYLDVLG

| SMILES | Activity |
| --- | --- |
| Nc1cccc(-c2cnc3[nH]cc(-c4ccncc4)c3c2)c1 | 0% |
| COc1ccc(-c2c[nH]c3ncc(-c4cncc(N)c4)cc23)cc1OC | 0.05% |
| COc1ccc(-c2c[nH]c3ncc(-c4cccc(N)c4)cc23)cc1OC | 1.3% |
| COc1ccc(-c2c[nH]c3ncc(-c4cccc(C#N)c4)cc23)cc1OC | 26% |
| Nc1cccc(-c2cnc3[nH]cc(-c4cccnc4)c3c2)c1 | 0.2% |
| Nc1cccc(-c2cnc3[nH]cc(-c4ccccc4)c3c2)c1 | 0.3% |
| N#Cc1cccc(-c2c[nH]c3ncc(-c4cccc(N)c4)cc23)c1 | 2.6% |
| COc1ccc(-c2c[nH]c3ncc(-c4cccc(NS(=O)(=O)c5ccccc5)c4)cc23)cc1OC | 0.2% |
| COc1ccc(-c2c[nH]c3ncc(-c4cncc(NS(=O)(=O)c5ccccc5)c4)cc23)cc1OC | 0.8% |
| N#Cc1cccc(-c2cnc3[nH]cc(-c4cccc(N)c4)c3c2)c1 | 0.65% |
| CS(=O)(=O)Nc1cccc(-c2c[nH]c3ncc(-c4cncc(NS(=O)(=O)c5ccccc5)c4)cc23)c1 | 9.6% |

Molecular target: T1, Phosphatidylinositol 4,5-bisphosphate 3-kinase catalytic subunit alpha isoform
Assay: Binding affinity to PI3Kalpha at 10 uM by high throughput binding assay relative to control
Conditions: not given

| SMILES | Activity |
| --- | --- |
| Nc1cccc(-c2cnc3[nH]cc(-c4ccncc4)c3c2)c1 | 31% |
| COc1ccc(-c2c[nH]c3ncc(-c4cncc(N)c4)cc23)cc1OC | 12% |
| COc1ccc(-c2c[nH]c3ncc(-c4cccc(N)c4)cc23)cc1OC | 59% |
| COc1ccc(-c2c[nH]c3ncc(-c4cccc(C#N)c4)cc23)cc1OC | 69% |
| Nc1cccc(-c2cnc3[nH]cc(-c4cccnc4)c3c2)c1 | 42% |
| Nc1cccc(-c2cnc3[nH]cc(-c4ccccc4)c3c2)c1 | 100% |
| N#Cc1cccc(-c2c[nH]c3ncc(-c4cccc(N)c4)cc23)c1 | 98% |
| COc1ccc(-c2c[nH]c3ncc(-c4cccc(NS(=O)(=O)c5ccccc5)c4)cc23)cc1OC | 31% |
| COc1ccc(-c2c[nH]c3ncc(-c4cncc(NS(=O)(=O)c5ccccc5)c4)cc23)cc1OC | 0.05% |
| N#Cc1cccc(-c2cnc3[nH]cc(-c4cccc(N)c4)c3c2)c1 | 48% |
| CS(=O)(=O)Nc1cccc(-c2c[nH]c3ncc(-c4cncc(NS(=O)(=O)c5ccccc5)c4)cc23)c1 | 0.9% |

Molecular target: T2, High affinity nerve growth factor receptor
Assay: Inhibition of TRKA assessed as [gamma33P]ATP incorporation into substrate
Conditions: not given
Target sequence in this assay (P04629 whole entry): as the sequence (P04629 whole entry) above

| SMILES | IC50 |
| --- | --- |
| COc1cccc(-c2cnc3[nH]cc(-c4ccncc4)c3c2)c1 | 22.7 nM |
| CN(C)c1cccc(-c2cnc3[nH]cc(-c4ccncc4)c3c2)c1 | 26.5 nM |
| Nc1cc(-c2cnc3[nH]cc(-c4ccncc4)c3c2)ccc1Cl | 53.7 nM |
| Nc1ccc(NS(=O)(=O)c2ccccc2)c(-c2cnc3[nH]cc(-c4ccncc4)c3c2)c1 | 3170 nM |
| Nc1cccc(-c2cnc3[nH]cc(-c4ccncc4)c3c2)c1 | 42.7 nM |
| CNc1cccc(-c2cnc3[nH]cc(-c4ccncc4)c3c2)c1 | 31.4 nM |
| Nc1cc(NS(=O)(=O)c2ccccc2)cc(-c2cnc3[nH]cc(-c4ccncc4)c3c2)c1 | 9.4 nM |
| CN(C)CCOc1cc(N)cc(-c2cnc3[nH]cc(-c4ccncc4)c3c2)c1 | 13.6 nM |
| Cc1ccc(-c2cnc3[nH]cc(-c4ccncc4)c3c2)cc1N | 22.2 nM |
| Nc1cc(NS(=O)(=O)c2ccc(F)cc2F)cc(-c2cnc3[nH]cc(-c4ccncc4)c3c2)c1 | 2.97 nM |
| CN(C)CCOc1ccc(-c2cnc3[nH]cc(-c4ccncc4)c3c2)cc1N | 47 nM |
| Nc1cc(OCCN2CCOCC2)cc(-c2cnc3[nH]cc(-c4ccncc4)c3c2)c1 | 8.36 nM |
| CC(=O)Nc1cc(N)cc(-c2cnc3[nH]cc(-c4ccncc4)c3c2)c1 | 5.41 nM |
| Nc1cncc(-c2cnc3[nH]cc(-c4ccncc4)c3c2)c1 | 69.6 nM |
| Cc1ccc(S(=O)(=O)Nc2cc(N)cc(-c3cnc4[nH]cc(-c5ccncc5)c4c3)c2)cc1 | 4.62 nM |
| Nc1cc(C(=O)N2CCOCC2)cc(-c2cnc3[nH]cc(-c4ccncc4)c3c2)c1 | 64.7 nM |
| COc1cc(N)cc(-c2cnc3[nH]cc(-c4ccncc4)c3c2)c1 | 18.6 nM |
| COc1ccc(N)cc1-c1cnc2[nH]cc(-c3ccncc3)c2c1 | 110 nM |
| Nc1cc(-c2cnc3[nH]cc(-c4ccncc4)c3c2)ccc1C(=O)N1CCOCC1 | 88.6 nM |
| CC(=O)Nc1cccc(-c2cnc3[nH]cc(-c4ccncc4)c3c2)c1 | 34.3 nM |
| CS(=O)(=O)Nc1cc(N)cc(-c2cnc3[nH]cc(-c4ccncc4)c3c2)c1 | 33.8 nM |
| Nc1ccc(-c2cnc3[nH]cc(-c4ccncc4)c3c2)cc1 | 25 nM |
| COc1ccc(-c2cnc3[nH]cc(-c4ccncc4)c3c2)cc1N | 33.2 nM |
